The assay has as its system A. baumannii ATCC 17978. Kind of assay: 50% growth inhibitory concentration (IC50) determination, antimicrobial susceptibility testing. It counts as cell-based. As to conditions: Acinetobacter baumannii; 50% growth inhibition, A. baumannii strain ATCC17978, Iso-Sensitest medium; read-out: IC50 ATCC17978. On the procedure:
The in vitro antimicrobial activity of the compounds was alternatively determined according to the following procedure:
The assay used a 10-points Iso-Sensitest broth medium to measure quantitatively the in vitro activity of the compounds against A. baumannii ATCC 17978.
Stock compounds in DMSO were serially twofold diluted (e.g. range from 50 to 0.097 μM or from 10 to 0.020 μM final concentration) in 384 wells microtiter plates and inoculated with 49 μl the bacterial suspension in Iso-Sensitest medium to have a final cell concentration of ˜5×10^(5)CFU/ml in a final volume/well of 50 μl/well. Microtiter plates were incubated at 35±2° C.
Bacterial cell growth was determined with the measurement of optical density at X=600 nm each 20 minutes over a time course of 16h.
Growth inhibition was calculated during the logarithmic growth of the bacterial cells with determination of the concentration inhibiting 50% (IC50) and 90% (IC90) of the growth.
Table 1 provides the 50% growth inhibitory concentrations (IC50) in micromoles per liter of the compounds of present invention obtained against the A. baumannii strain ATCC17978.
In the case of `CN1C(=O)[C@H](CCCCN)NC(=O)[C@H](CCCN)NCc2cccnc2Sc2c(Cl)ccc(-c3ccc(C(=O)O)nc3)c2CNC(=O)[C@@H]1Cc1c[nH]c2ccccc12` [Example 2.02, 5-[(11S,14S,17S)-14-(4-aminobutyl)-11-(3-aminopropyl)-25-chloro-17-(1H-indo1-3-ylmethyl)-16-methyl-12,15,18-trioxo-2-thia-4,10,13,16,19-pentazatricyclo[19.4.0.03,8]pentacosa-1(25),3,5,7,21,23-hexaen-22-yl]pyridine-2-carboxylic acid], the half-maximal inhibitory concentration (IC50) stood at 0.029 µM.

For the compound `CN1C(=O)[C@H](CCCCN)NC(=O)[C@H](CCCN)NCc2cccnc2Sc2c(Cl)ccc(-c3ccc(C(=O)O)c(O)c3)c2CNC(=O)[C@@H]1Cc1c[nH]c2ccccc12` [Example 3.00, 4-[(1 S,14S,17S)-14-(4-Aminobutyl)-1-(3-aminopropyl)-25-chloro-17-(1H-indol-3-ylmethyl)-16-methyl-12,15,18-trioxo-2-thia-4,10,13,16,19-pentazatricyclo[19.4.0.03,8]pentacosa-1(21), 3(8), 4,6,22,24-hexaen-22-yl]-2-hydroxy-benzoic Acid], the concentration for half-maximal inhibition (IC50) was determined as 0.039 µM.

Regarding `CN1C(=O)[C@H](CCC(F)(F)CN)NC(=O)[C@H](CCCN)NCc2cccnc2Sc2c(Cl)ccc(-c3ccc(C(=O)O)cc3)c2CNC(=O)[C@@H]1Cc1c[nH]c2ccccc12` [Example 4.00, 4-[(11S,14S,17S)-14-(4-Amino-3,3-difluoro-butyl)-11-(3-aminopropyl)-25-chloro-17-(1H-indol-3-ylmethyl)-16-methyl-12,15,18-trioxo-2-thia-4,10,13,16,19-pentazatricyclo[19.4.0.03,8]pentacosa-1(21), 3,5,7,22,24-hexaen-22-yl]benzoic Acid], the IC50 stood at 0.019 µM. With `CN1C(=O)[C@H](CCCCN)NC(=O)[C@H](CCC(N)=O)NCc2cccnc2Sc2c(Cl)ccc(-c3ccc(C(=O)O)cc3)c2CNC(=O)[C@@H]1Cc1c[nH]c2ccccc12` [Example 5.00, 4-[(11S,14S,17S)-14-(4-aminobutyl)-1-(3-amino-3-oxo-propyl)-25-chloro-17-(1H-indol-3-ylmethyl)-16-methyl-12,15,18-trioxo-2-thia-4,10,13,16,19-pentazatricyclo[19.4.0.03,8]pentacosa-1(21), 3,5,7,22,24-hexaen-22-yl]benzoic Acid], the 50% inhibitory concentration (IC50) turned out to be 0.067 µM. `Cc1[nH]c2ccccc2c1C[C@H]1C(=O)NCc2c(-c3ccc(C(=O)O)cc3)ccc(Cl)c2Sc2ncccc2CN[C@@H](CCCN)C(=O)N[C@@H](CCCCN)C(=O)N1C` [Example 7.00, 4-[(11S,14S,17S)-14-(4-Aminobutyl)-11-(3-aminopropyl)-25-chloro-16-methyl-17-[(2-methyl-1H-indol-3-yl)methyl]-12,15,18-trioxo-2-thia-4,10,13,16,19-pentazatricyclo[19.4.0.03,8]pentacosa-1(25), 3,5,7,21,23-hexaen-22-yl]benzoic Acid]: the IC50 was 0.028 µM. With `CN1C(=O)[C@H](CCCCN)NC(=O)[C@H](CCCN)NCc2nccnc2Sc2c(Cl)ccc(-c3ccc(C(=O)O)cc3)c2CNC(=O)[C@@H]1Cc1c[nH]c2ccccc12` [Example 8.00, 4-[(11S,14S,17S)-14-(4-Aminobutyl)-11-(3-aminopropyl)-25-chloro-17-(1H-indol-3-ylmethyl)-16-methyl-12,15,18-trioxo-2-thia-4,7,10,13,16,19-hexazatricyclo[19.4.0.03,8]pentacosa-1(21), 3,5,7,22,24-hexaen-22-yl]benzoic Acid], the IC50 stood at 0.02 µM. Consider `CN1C(=O)[C@H](CCCCN)NC(=O)[C@H](CCCN)NCc2cccnc2Sc2c(F)ccc(-c3ccn(/C=C/C(=O)O)c(=O)c3)c2CNC(=O)[C@@H]1Cc1c[nH]c2ccccc12` [Example 9.02, (E)-3-[4-[(11S,14S,17S)-14-(4-Aminobutyl)-11-(3-aminopropyl)-25-fluoro-17-(1H-indol-3-ylmethyl)-16-methyl-12,15,18-trioxo-2-thia-4,10,13,16,19-pentazatricyclo[19.4.0.03,8]pentacosa-1(25),3(8),4,6,21,23-hexaen-22-yl]-2-oxo-1-pyridyl]prop-2-enoic acid], for which the IC50 stood at 0.088 µM.

The term IC50 denotes the concentration needed to halve the response being measured.

(Values after patent publication US11819532B2, “Peptide macrocycles against Acinetobacter baumannii” (Hoffmann-La Roche Inc., priority 2018, dated 2023).)
